Source: patent US7618975B2, “4-arylamino-quinazolines and analogs as activators of caspases and inducers of apoptosis and the use thereof” (Myriad Pharmaceuticals, Inc., priority 2003, dated 2009)
Like-named read-outs stand apart in the source and are kept apart here.

Tests used:
T-47D cells [1] = test: Caspase cascade activation (N-(Ac-DEVD)-N′-ethoxycarbonyl-R110 fluorogenic substrate) in T-47D cells; assay type: cell-based, Human; details: for EC50: Homo sapiens, T47D
DLD cells = test: Inhibition of cell proliferation (GI50, CellTiter-Glo); assay type: cell-based; details: Homo sapiens; 48 h incubation
Protocol: (§1) T-47D, DLD, H1299, MX-1 and SW620 cells were grown and harvested as in Example 143. […] An aliquot of 45 μL of cells was added to a well of a 96-well microtiter plate containing 5 μL of a 10% DMSO in RPMI-1640 media solution without compound as the control sample for maximal cell proliferation (LMax). The samples were mixed by agitation and then incubated at 37° C. for 48 h in a 5% CO2-95% humidity incubator. After incubation, the samples were removed from the incubator and 25 μL of CellTiter-Glo™ reagent (Promega) was added. The samples were mixed by agitation and incubated at room temperature for 10-15 min. Plates were then read using a luminescent plate reader (Model SPECTRAfluor Plus, Tecan) to give Ltest values.
(§2) The samples were mixed by agitation and then incubated at 37° C. for 0.5 h in a 5% CO2-95% humidity incubator. After incubation, the samples were removed from the incubator and 25 μL of CellTiter-Glo™ reagent (Promega) was added. The samples were mixed by agitation and incubated at […] 10-15 min at room temperature in a 5% CO2-95% humidity incubator. Fluorescence was read as above, (LStart) defining luminescence for initial cell number used as baseline in GI50 determinations.

H1299 cells = test: as above; assay type: cell-based; details: Homo sapiens, NCI-H1299; 48 h incubation
Protocol: as §1, §2

MX-1 cells = test: as above; assay type: cell-based; details: Homo sapiens, MX1; 48 h incubation
Protocol: as §1, §2

SW620 cells = test: as above; assay type: cell-based; details: Homo sapiens, SW-620; 48 h incubation
Protocol: as §1, §2

T-47D cells [2] = test: as above; assay type: cell-based; details: Homo sapiens, T47D; 48 h incubation
Protocol: as §1, §2

[3] = system: tubulin (Cytoskeleton #ML113, MAP-rich); test: Inhibition of tubulin polymerization (DAPI fluorescence); assay type: biochemical; details: 30 minutes preincubation, 30 minutes at 37° C.
Protocol: Lyophilized tubulin (Cytoskeleton #ML113, 1 mg, MAP-rich) was assayed for the effect of the test compound on tubulin polymerization as measured by change in fluorescence for 4′,6-diamidino-2-phenylindole (DAPI) (Barron, D. M. et al. Analytical Biochem., 2003, 315, 49-56.). 1 μl of serial dilutions of each test compound (from 100×DMSO stock) was added in 96 well plate format and preincubated for 30 minutes with 94 ul of the non-GTP supplemented tubulin supernatant. 5 μl of DAPI/GTP solution was added to initiate polymerization and incubated for 30 minutes at 37° C. Fluorescence was read with excitation 350 nm, emission wavelength 485 nm on a Tecan Spectraflour Plus. Polymerized tubulin (DMSO and with the tubulin stabilizer Taxol® (paclitaxel)) gives a higher DAPI fluorescence as compared to non-polymerized tubulin (vinblastine and colchicine used to determine baseline).

[4] = target: tyrosine kinase of Epidermal Growth Factor Receptor (Homo sapiens, UniProt P00533); details: Rewcastle et al. 1995; read-out: IC50 EGFR tyrosine kinase; cited from earlier work
Sequence of tyrosine kinase of Epidermal Growth Factor Receptor (P00533 25-1210): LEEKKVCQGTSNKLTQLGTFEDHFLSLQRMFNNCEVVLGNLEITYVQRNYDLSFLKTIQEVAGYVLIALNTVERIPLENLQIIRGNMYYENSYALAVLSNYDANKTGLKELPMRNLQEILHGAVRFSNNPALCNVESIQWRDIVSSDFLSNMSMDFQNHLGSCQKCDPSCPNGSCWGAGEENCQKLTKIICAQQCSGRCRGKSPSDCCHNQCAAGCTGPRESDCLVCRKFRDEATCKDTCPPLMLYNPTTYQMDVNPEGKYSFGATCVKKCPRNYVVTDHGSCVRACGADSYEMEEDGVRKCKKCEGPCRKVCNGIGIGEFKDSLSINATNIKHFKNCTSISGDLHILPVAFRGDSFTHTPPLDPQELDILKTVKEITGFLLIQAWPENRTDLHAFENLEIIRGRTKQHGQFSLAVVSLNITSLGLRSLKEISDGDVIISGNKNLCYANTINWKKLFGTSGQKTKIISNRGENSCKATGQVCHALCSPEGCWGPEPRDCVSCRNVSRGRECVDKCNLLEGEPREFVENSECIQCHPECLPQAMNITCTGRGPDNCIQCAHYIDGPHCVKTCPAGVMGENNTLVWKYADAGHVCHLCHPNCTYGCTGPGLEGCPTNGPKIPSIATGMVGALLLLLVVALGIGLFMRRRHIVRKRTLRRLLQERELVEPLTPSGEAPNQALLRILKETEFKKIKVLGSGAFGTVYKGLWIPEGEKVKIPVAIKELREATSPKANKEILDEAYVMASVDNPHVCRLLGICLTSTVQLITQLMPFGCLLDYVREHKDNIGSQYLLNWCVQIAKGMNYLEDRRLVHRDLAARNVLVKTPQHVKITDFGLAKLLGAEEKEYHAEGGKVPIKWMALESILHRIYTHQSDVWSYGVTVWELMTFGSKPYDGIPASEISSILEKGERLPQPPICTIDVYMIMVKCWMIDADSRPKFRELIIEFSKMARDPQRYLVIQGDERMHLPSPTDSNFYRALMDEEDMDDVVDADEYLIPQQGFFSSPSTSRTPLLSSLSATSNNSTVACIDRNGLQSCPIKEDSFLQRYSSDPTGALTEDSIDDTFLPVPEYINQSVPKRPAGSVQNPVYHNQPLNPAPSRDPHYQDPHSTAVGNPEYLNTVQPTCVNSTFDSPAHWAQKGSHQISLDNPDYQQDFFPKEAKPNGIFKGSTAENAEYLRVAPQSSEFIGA

Row | Structure (SMILES) | EC50 (T-47D cells [1]; T-47D, 24 hr, read-out: Caspase potency EC50 (nM) T-47D (24 hr)) | EC50 (T-47D cells [1]; Table III, time not printed (values repeat Table I 24 hr or 48 hr), read-out: Caspase activation (EC50 nM)) | Caspase activity Ratio T-47D (24 hr) (T-47D cells [1]; T-47D, 24 hr, ratio of net RFU to control) | GI50 (DLD cells) | GI50 (H1299 cells) | GI50 (MX-1 cells) | GI50 (SW620 cells) | GI50 (T-47D cells [2]) | IC50 [3] | IC50 [4]
1 | COc1ccc(N(C)c2ncnc3ccccc23)cc1 [Example 34, (4-Methoxy-phenyl)-methyl-quinazolin-4-yl-amine] | 7 nM | 7 nM | 7.5 | 76 nM | 59 nM | 73 nM | 55 nM | 503 nM | 1 µM | 
2 | CN(c1ccccc1)c1ncnc2ccccc12 [R1═Me, R2═R3═R4═H] |  |  |  |  |  |  |  |  |  | > 100 µM
